target: T1, human CGRP receptor (Homo sapiens, UniProt O60894+Q16602); test: Binding studies with SK-N-MC cells (expressing the human CGRP receptor), 125I-iodotyrosyl-CGRP displacement on SK-N-MC membranes; conditions: 50 pM 125I-iodotyrosyl-CGRP, 180 minutes at ambient temperature
T1 construct: SK-N-MC membranes (˜20 μg protein) are incubated for 180 minutes at ambient temperature; endogenous in cells; host or cells: SK-N-MC cells (membranes)
Description: A. Binding Studies with SK-N-MC Cells (Expressing the Human CGRP Receptor)
SK-N-MC membranes (˜20 μg protein) are incubated for 180 minutes at ambient temperature with 50 pM ^125I-iodotyrosyl-Calcitonin-Gene-Related Peptide and increasing concentrations of the test substances in a total volume of 250 μl (assay buffer: 10 mM tris, 50 mM NaCl, 5 mM MgCl2, 1 mM EDTA, pH=7.4). The incubation is ended by rapid filtration through GF/B-glass fibre filters treated with polyethyleneimine (0.1%) using a cell harvester. The protein-bound radioactivity is measured using a gamma counter. Non-specific binding is defined as the bound radioactivity after the presence of 1 μM BIBN4096BS during incubation.
The concentration binding curves are analysed using computer-aided non-linear curve fitting.

T1 sequence (Q16602 23-461): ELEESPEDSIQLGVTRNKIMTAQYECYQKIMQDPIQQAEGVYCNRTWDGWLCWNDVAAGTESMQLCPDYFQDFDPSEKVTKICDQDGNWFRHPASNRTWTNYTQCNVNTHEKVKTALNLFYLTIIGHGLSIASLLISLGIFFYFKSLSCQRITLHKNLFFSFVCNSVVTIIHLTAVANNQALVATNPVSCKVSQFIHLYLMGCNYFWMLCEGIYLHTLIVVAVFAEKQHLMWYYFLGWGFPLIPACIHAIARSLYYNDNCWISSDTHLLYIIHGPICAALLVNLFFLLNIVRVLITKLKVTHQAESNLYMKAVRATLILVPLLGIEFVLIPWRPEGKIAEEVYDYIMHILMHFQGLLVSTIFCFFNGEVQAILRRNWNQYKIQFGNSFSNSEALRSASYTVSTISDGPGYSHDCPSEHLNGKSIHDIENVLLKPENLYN
T1 sequence (O60894 27-148): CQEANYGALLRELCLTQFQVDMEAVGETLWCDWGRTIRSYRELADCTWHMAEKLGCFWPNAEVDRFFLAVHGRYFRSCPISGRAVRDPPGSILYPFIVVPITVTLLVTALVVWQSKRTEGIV

| Structure (SMILES) | Ki [nM] |
| --- | --- |
| O=C(CN1C(=O)C2(CCC3(CCOCC3)CC2)NC[C@H]1c1cc(F)cc(F)c1)Nc1ccc2c(c1)C[C@@]1(C2)C(=O)Nc2ncccc21 [Example 14, 2-((R)-3-(3,5-difluoro-phenyl)-5-oxo-12-oxa-1,4-diaza-dispiro[5.2.5.2]hexadecan-4-yl)-N-((R)-2′-oxo-1,1′,2′,3-tetrahydrospiro[inden-2,3′-pyrrolo[2,3-b]pyridin]-5-yl)acetamide] | 0.07 |
| O=C(CN1C(=O)C2(COCCOC2)NC[C@H]1c1cc(F)cc(F)c1)Nc1cnc2c(c1)CC1(C2)C(=O)Nc2ncccc21 (stereo partly drawn) [Example 24, 2-((R)-3-(3,5-difluorophenyl)-5-oxo-8,11-dioxa-1,4-diazaspiro[5.6]dodecan-4-yl)-N-(2′-oxo-1′,2′,5,7-tetrahydrospiro[cyclopenta[b]pyridin-6,3′-pyrrolo[2,3-b]pyridin]-3-yl)acetamide] | 0.07 |
| O=C(CN1C(=O)C2(COCCOC2)NC[C@H]1c1ccccc1)Nc1ccc2c(c1)C[C@@]1(C2)C(=O)Nc2ncccc21 [Example 21, N—((R)-2′-oxo-1,1′,2′,3-tetrahydrospiro[inden-2,3′-pyrrolo[2,3-b]pyridin]-5-yl)-2-((R)-5-oxo-3-phenyl-8,11-dioxa-1,4-diazaspiro[5.6]dodecan-4-yl)acetamide] | 0.44 |
| COc1cccc(C2CNC3(COCCOC3)C(=O)N2CC(=O)Nc2ccc3c(c2)C[C@@]2(C3)C(=O)Nc3ncccc32)c1 (stereo partly drawn) [Example 18, 2-(3-(3-methoxyphenyl)-5-oxo-8,11-dioxa-1,4-diazaspiro[5.6]dodecan-4-yl)-N—((R)-2′-oxo-1′,2′,3-tetrahydrospiro[inden-2,3′-pyrrolo[2,3-b]pyridin]-5-yl)acetamide] | 0.84 |
| O=C(CN1C(=O)C2(COCCOC2)NC[C@H]1c1cc(F)cc(F)c1)Nc1ccc2c(c1)C[C@@]1(C2)C(=O)Nc2ncccc21 [Example 1a, 2-((R)-3-(3,5-difluorophenyl)-5-oxo-8,11-dioxa-1,4-diazaspiro[5.6]dodecan-4-yl)-N-((R)-2′-oxo-1,1′,2′,3-tetrahydrospiro[indene-2,3′-pyrrolo[2,3-b]pyridin]-5-yl)acetamide] | 0.03 |
| CC(C)(C)OC(=O)N1C[C@@H](c2ccccc2)N(CC(=O)Nc2ccc3c(c2)C[C@@]2(C3)C(=O)Nc3ncccc32)C(=O)C12COCCOC2 [Example 20, (R)-tert-butyl 5-oxo-4-(2-oxo-2-((R)-2′-oxo-1,1′,2′,3-tetrahydrospiro[inden-2,3′-pyrrolo[2,3-b]pyridin]-5-ylamino)ethyl)-3-phenyl-8,11-dioxa-1,4-diazaspiro[5.6]dodecane-1-carboxylate] | 0.96 |
| O=C(CN1C(=O)C2(COCCOC2)NC[C@H]1c1cc(F)cc(F)c1)Nc1cc2c(cc1Cl)CC1(C2)C(=O)Nc2ncccc21 (stereo partly drawn) [Example 19, N-(5-chloro-2′-oxo-1,1′,2′,3-tetrahydrospiro[inden-2,3′-pyrrolo[2,3-b]pyridin]-6-yl)-2-((R)-3-(3,5-difluorophenyl)-5-oxo-8,11-dioxa-1,4-diazaspiro[5.6]dodecan-4-yl)acetamide] | 1.41 |
| O=C(CN1C(=O)C2(COCCOC2)NC[C@H]1c1ccc(F)cc1)Nc1ccc2c(c1)C[C@@]1(C2)C(=O)Nc2ncccc21 [Example 22, 2-((R)-3-(4-fluorophenyl)-5-oxo-8,11-dioxa-1,4-diazaspiro[5.6]dodecan-4-yl)-N-((R)-2′-oxo-1,1′,2′,3-tetrahydrospiro[inden-2,3′-pyrrolo[2,3-b]pyridin]-5-yl)acetamide] | 0.11 |
| O=C(CN1C(=O)C2(COCCOC2)NCC1c1cccc(F)c1)Nc1ccc2c(c1)C[C@@]1(C2)C(=O)Nc2ncccc21 (stereo partly drawn) [Example 23, 2-(3-(3-fluorophenyl)-5-oxo-8,11-dioxa-1,4-diazaspiro[5.6]dodecan-4-yl)-N—((R)-2′-oxo-1,1′,2′,3-tetrahydrospiro[inden-2,3′-pyrrolo[2,3-b]pyridin]-5-yl)acetamide] | 0.05 |
| CN1C[C@@H](c2cc(F)cc(F)c2)N(CC(=O)Nc2ccc3c(c2)C[C@@]2(C3)C(=O)Nc3ncccc32)C(=O)C12COCCOC2 [Example 17, 2-((R)-3-(3,5-difluorophenyl)-1-methyl-5-oxo-8,11-dioxa-1,4-diazaspiro[5.6]dodecan-4-yl)-N-((R)-2′-oxo-1,1′,2′,3-tetrahydrospiro[inden-2,3′-pyrrolo[2,3-b]pyridin]-5-yl)acetamide] | 0.03 |
| O=C(CN1C(=O)C2(COCCOC2)NCC1c1cc(F)cc(F)c1)Nc1cc2c(cn1)CC1(C2)C(=O)Nc2ncccc21 (stereo not shown) [Example 2] | 1.02 |
| O=C(CN1C(=O)C2(COCCOC2)NC[C@H]1c1cc(F)cc(F)c1)Nc1ccc2c(c1)C[C@]1(C2)C(=O)Nc2ncccc21 [Example 1b, 2-((R)-3-(3,5-difluorophenyl)-5-oxo-8,11-dioxa-1,4-diazaspiro[5.6]dodecan-4-yl)-N-((S)-2′-oxo-1,1′,2′,3-tetrahydrospiro[inden-2,3′-pyrrolo[2,3-b]pyridin]-5-yl)acetamide] | 1.77 |

The remaining lines, values ahead:

| Ki [nM] | Structure (SMILES) |
| --- | --- |
| 0.13 | O=C(CN1C(=O)[C@@H](CC2CCCCCC2)NCC1c1cc(F)cc(F)c1)Nc1ccc2c(c1)C[C@@]1(C2)C(=O)Nc2ncccc21 (single isomer, unassigned) [Example 16b] |
| 5.4 | O=C(CN1C(=O)[C@@H](CC2CCCCCC2)NCC1c1cc(F)cc(F)c1)Nc1ccc2c(c1)C[C@@]1(C2)C(=O)Nc2ncccc21 (single isomer, unassigned) [Example 16a] |
| 0.72 | O=C(CN1C(=O)C(CC2CCCCCC2)NCC1c1cc(F)cc(F)c1)Nc1ccc2c(c1)CC1(C2)C(=O)Nc2ncccc21 (stereo not shown) [Example 3] |
| 0.39 | O=C(CN1C(=O)C(C2CCOCC2)NCC1c1cc(F)cc(F)c1)Nc1ccc2c(c1)C[C@@]1(C2)C(=O)Nc2ncccc21 (single isomer, unassigned) [Example 15b] |
| 0.71 | O=C(CN1C(=O)[C@H](CC2CCCCCC2)NCC1c1cc(F)cc(F)c1)Nc1ccc2c(c1)C[C@@]1(C2)C(=O)Nc2ncccc21 (single isomer, unassigned) [Example 13 Diastereomer 2] |
| 0.72 | O=C(CN1C(=O)[C@H](CC2CCCCCC2)NCC1c1cc(F)cc(F)c1)Nc1ccc2c(c1)C[C@@]1(C2)C(=O)Nc2ncccc21 (single isomer, unassigned) [Example 13 Diastereomer 1] |
| 0.1 | O=C(CN1C(=O)C(C2CCOCC2)NCC1c1cc(F)cc(F)c1)Nc1ccc2c(c1)C[C@@]1(C2)C(=O)Nc2ncccc21 (single isomer, unassigned) [Example 15a] |

— patent publication US8765763B2, “Substituted piperazines as CGRP antagonists” (Boehringer Ingelheim International GmbH, priority 2009, dated 2014)
